Experimental data from patent US20260028390A1, “ALPHA1-ANTITRYPSIN FOR USE IN THE TREATMENT OF DISEASES OR DISORDERS OF THE NERVOUS SYSTEM SUCH AS CHRONIC INFLAMMATORY DEMYELINATING POLYNEUROPATHY” (Ageronix SA, priority 2022, published 2026).
“And” between values parts separate entries of the source, which are not always exact repeats. Equal entries are not always repeated.

Columns and labels:
[1] = Body weight, CMT1A mouse study (AAT 50 mg/kg sc twice daily); format: in vivo
Source text: As a murine model of CMT1A we used C3-PMP22 transgenic mice (B6.Cg-Tg(PMP22)C3Fbas/J, The Jackson Laboratory) which express three copies of a wild-type human peripheral myelin protein 22 (PMP22) gene (Verhamme, Camiel, et al. Journal of Neuropathology & Experimental Neurology 70.5 (2011): 386-398). Mice were housed in macrolon cages with filter hoods, in a continuously air-filtered room, thereby avoiding contamination. During experiments, paired animals were caged at a constant temperature with a day/night cycle of 12/12 hours. Animals were fed (control tap water and nutrition) ad libitum. Animal protocol is approved by the Animal Studies Committee of Languedoc Roussillon. This protocol and the laboratory procedures comply with French legislation, which implements the European Directives (Reference Number: D3417223, APAFIS #23920-2020020320279696 v3). Animal health was followed on a daily basis to ensure that only animals in good health enter the testing procedures and follow up the study.
Animals were split in 3 groups (wild-type control (subcutaneous 0.9% NaCl), CMT1A-vehicle (subcutaneous 0.9% NaCl), CMT1A-human alpha-1 antitrypsin (subcutaneous, twice daily, 50 mg/kg per injection)) of 3 mice each (3 weeks old males of 18±2.5 g at the beginning of study) and all went through the following protocol after 7 days of acclimation on site.

SH-SY5Y cells [2] = assay: Cell viability assay (CCK-8) of SH-SY5Y treated with 6-OHDA; format: cell-based; conditions: 6-OHDA combined with AAT 25 μM, CCK-8 absorbance 450 nm
Protocol: (§1) SH-SY5Y cells, which are commonly used to model neurodegenerative disorders, were used to produce an in vitro Parkinson's model (Que R, et al., 2021, Front. Immunol. 12). Cells were cultured in DMEMF12/Glutamax supplemented with 10% FBS.
(§2) Cells were treated for 24 hours with the neurotoxin 6-hydroxydopamine (6-OHDA, Sigma Aldrich 162957) at 50, 100 μM concentrations alone or in combination with AAT 25 μM (AAT plasma derived, Sigma Aldrich batch A9024). Cells treated with AAT alone or in combination with 6-OHDA for 24 hours, were then incubated with fresh AAT for additional 24 hours. Control cells were treated with PBS.
(§3) At day 0 cells were plated in equally number in 24-well plate, the day after they were treated as described above, and final total cell count was performed at day 4 of culture (cell growth). Cell viability was assessed with Cell Counting Kit-8 (CCK-8; Sigma Aldrich 96992). After treatments, cells were incubated with 10 μl of CCK-8 solution for 2 hours in the incubator. Absorbance was measured at 450 nm using SpectraMax iD3 Microplate Reader. Experiments were performed in triplicate.

Microglial (HMC3) cells = assay: IL6 and IL1B gene expression (qPCR) in IFNγ-induced microglia; format: cell-based, human; conditions: HMC3, IFNγ 10 ng/mL 24 h; AAT 25 μM or peptides 50 μM
Protocol: Microglial (HMC3) cells were seeded into 96-well plates at a density of approximately 2500 cells/well. Plasma derived AAT (Sigma, 25 μM) or peptide 8, peptide 9 or peptide 14 (Syngene, 50 μM) were added, and microglial activation was induced with interferon gamma (IFNγ) (10 ng/mL) for 24 h with no preincubation. Then, the RNA was extracted (RNAeasy mini kit, Qiagen) and the expression of the Interleukin-6 (IL6) and Interleukin-Ibeta (ILIB) genes were analysed. qPCR was performed with Syber green POWER UP master mix using 10 ng/well of cDNA in all gene expression results.

[3] = tested on: CMT1A mice B6.Cg-Tg(PMP22)C3Fbas/J; assay: Rotarod latency to fall, CMT mice treated with AAT 180 mg/kg/day sc; format: in vivo, mouse
Protocol: CMT MOUSE MODEL: Non-humanized CMT1A mice B6.Cg-Tg(PMP22)C3Fbas/J (three copies of the PMP22 gene), three groups of 8 animals each.
DOSAGE: 180 mg/kg/day non-clinical grade AAT (Sigma)
ADMINISTRATION: Subcutaneous (SC) (bi-daily injection of 90 mg/kg)
Animals were received at 6 weeks of age and housed under controlled conditions for the duration of the study. The study comprised two groups of 8 transgenic mice (CMT mice) each and one group of 8 age matched wild type (WT) C57B16 mice, serving as positive control. Animals were assigned to the following subcutaneous treatments twice daily at 7:00 AM and 7:00 PM for 2 weeks, starting from 8 weeks and up to 10 weeks of age: • Wild-type (WT, no disease) mice receiving vehicle, 0.9% NaCl (positive control) • CMT1A mice receiving vehicle, 0.9% NaCl (negative control) • CMT1A mice receiving AAT at 90 mg/kg per injection (daily dose 180 mg/kg)
The efficacy parameters included: • neuromuscular performance (rotarod latency to fall and grip strength test), • sciatic nerve electrophysiology (CMAP amplitude and NCV) • cytokine (IL-6 and TNFα), as well as NfL analysis • sciatic nerve histology (number of axons and axonal diameter),
On the first day of treatment (Day 1), the neuromuscular and performance of animals was tested with a rotarod test and a grip strength test, as well as sciatic nerve electrophysiology test, which measured the compound muscle action potential (CMAP) and the nerve conduction velocity (NCV). After the last treatment on Day 15, these tests were repeated. Animals were then left untreated for 2 additional weeks to evaluate the duration of the treatment effect. Following the 2-week treatment-free period until 12 weeks of age (Day 30), the behavioural and electrophysiological tests were repeated.

SH-SY5Y cells [4] = assay: Cell growth (cell count, morphology) of SH-SY5Y treated with 6-OHDA; format: cell-based; conditions: 6-OHDA combined with AAT 25 μM, day 4 of culture, p=0.003
Protocol: as §1, §2, §3

[5] = 8 weeks old, CMT + hAAT 180 mg/kg/day SC, individual animal

Substance: alpha1-antitrypsin (AAT) protein
- Body weight, MEAN ([1]; CMT1A + hAAT, 3rd column, head prints 6 weeks old, in g (unit assumed)): 19.73
- Body weight, individual mice ([1]; CMT1A + hAAT, 3rd column, head prints 6 weeks old, listed as hAAT, in g (unit assumed)): 19.6 and 20.5 and 19.1
- body weight loss in the AAT treated group compared to the vehicle group ([1]; CMT1A mice, 50 mg/kg sc twice daily, two weeks): no observable body weight loss
- cell count and viability compared to 6-OHDA treatment alone (SH-SY5Y cells [2]): significantly enhanced
- IL1B expression reduced by (Microglial (HMC3) cells): 60-70%
- IL6 expression reduced by (Microglial (HMC3) cells): 30-40%
- Rotarod latency (Mean ± SD) ([3]; 8 weeks old (baseline, Day 1), CMT1A + AAT): 38.76 ± 4.90 s
- Rotarod latency, group Mean ([3]; 8 weeks old, CMT + hAAT 180 mg/kg/day SC, 8 animals): 62.63 s
- Rotarod latency, Mean/animal [3, 5]: 63.15 s and 51.81 s and 53.95 s and 52.25 s and 38.51 s and 92.09 s and 74.02 s and 75.23 s
- Rotarod latency, set 1 [3, 5]: 55.48 s and 48.88 s and 60.00 s and 47.76 s and 30.45 s and 96.29 s and 74.06 s and 68.88 s
- Rotarod latency, set 2 [3, 5]: 61.08 s and 61.14 s and 48.80 s and 53.19 s and 62.45 s and 79.58 s and 65.45 s and 74.87 s
- Rotarod latency, set 3 [3, 5]: 72.89 s and 45.41 s and 53.05 s and 55.82 s and 22.62 s and 100.40 s and 82.56 s and 81.93 s
- Rotarod latency (Mean ± SD) ([3]; 10 weeks old (Day 15, after 2 weeks AAT 90 mg/kg sc twice daily)): 57.77 ± 19.19 s
- rotarod latency to fall vs untreated group ([3]; 12 weeks of age, after 2-week treatment-free period): non-significantly different
- Rotarod latency (Mean ± SD) ([3]; 12 weeks old (Day 30, after 2-week treatment-free period)): 36.92 ± 1.66 s
- number of cells counted compared to 6-OHDA alone (SH-SY5Y cells [4]): significantly increased
